In US11939377B2, “Affinity matured CD22-specific monoclonal antibody and uses thereof” (The U.S.A., as represented by the Secretary, Department of …, priority 2018, dated 2024):

Legend:
KOPN8 and SEM cell lines = experiment: RNA sequencing of Bryostatin 1-treated ALL cell lines; assay type: cell-based, human
Description: FIGS. 4A-4E: (FIGS. 4A-4B) KOPN8 or SEM cell lines were exposed to Bryostatin 1 for 16, 24, 48, or 72 hours. RNA was extracted from cells and analyzed using RNAseq. (FIGS. 4C-4E) Cell lines were co-incubated with 1 ng/ml of Bryostatin 1 for 24 hours. […] IL-2 (FIG. 4C), IFN-γ (FIG. 4D), and granzyme B (FIG. 4E) were measured by ELISA from cell culture supernatants. Statistical significance was calculated using an unpaired t-test (**** p<0.0001, *** p<0.0002, ** p<0.0021, * p<0.0332).
Sixteen RNA-seq samples were pooled and sequenced on one NextSeq high output run using Illumina TruSeq Poly A RNA Kit v3 with paired end sequencing. All samples had greater than 30 million pass filter reads with a base call quality above 95% of bases with Q30 and above. Reads of the samples were trimmed for adapters and low-quality bases using Trimmomatic software before alignment with the reference genome Human—hg19 and the annotated transcripts using STAR. The mapping quality statistics were calculated using Picard software and library complexity was measured in terms of unique fragments in the mapped reads using Picard's MarkDuplicate utility. The Partek Flow informatics pipeline was used to generate fold change and differentially expressed gene data as well as for data visualization. Gene set enrichment analysis (GSEA) of the differentially expressed genes was performed as previously described and using standard parameters.

[1] = tested on: CD22^neg, CD22^lo or Nalm6 cells; experiment: In vitro leukemia clearance assay (IncuCyte, loss of GFP-positive cells); assay type: cell-based, human; conditions: effector-to-target 1:1
Description: Cell death was monitored by loss of GFP-positive cells using Incucyte analysis. (FIG. 2B) NSG mice were injected with 1×10^6 GPF-positive CD22neg, CD22lo, or Nalm6 tumor cells on Day 0. […] Mice were imaged using IVIS technology after luciferin-D IP injection. […] Cells were stained for flow cytometry and analyzed on a Fortessa flow machine. (FIG. 2E) Site density cell lines were co-incubated with CD22 CART for 24 hours, and PD1 expression was stained for flow cytometry and analyzed on Fortessa flow machine. MFI=mean fluorescence intensity. […] (FIG. 2G) CD22 site density was evaluated using flow cytometry and Quantibrite analysis for CRISPR-edited Nalm6 cell lines.
FIGS. 5A-5D: (FIGS. 5A-5B) CD22 CART cells were co-incubated with 1 ng/ml of Bryostatin 1 for 24 hours and washed. […] IFN-γ (FIG. 5A) and granzyme B (FIG. 5B) were measured by ELISA from cell culture supernatants. Statistical analysis was performed using an unpaired t-test (**** p<0.0001, *** p<0.0002, ** p<0.0021, * p<0.0332). […] Cell death was monitored by loss of GFP-positive cells using Incucyte analysis. (FIG. 5D) NSG mice were injected with Nalm6 on Day 0, CD22 CART cells on Day 3, and then were given either DMSO control or Bryostatin 1 at 0.8 μg/kg once weekly for 2 weeks. Leukemia progression was monitored using IVIS technology and luciferin-D IP injections. […]

PKC-βII = molecular target: T1, PKC-βII (Homo sapiens, UniProt P05771); experiment: PKC-βII western blot of Bryostatin 1-treated cell lines; assay type: cell-based; conditions: 24 hours exposure
T1 construct: Leukemia cell protein extracts were prepared by lysing cells with RIPA buffer; endogenous in cells; host or cells: Toledo, Kopn8, Nalm6
Description: FIGS. 10A-10E: (FIG. 10A) Three cell lines (Toldeo, Kopn8 and Nalm6) were co-incubated with Bryostatin 1 at varying concentrations for 24 hours. At 24 hours, cells were collected for protein kinase C (PKC)-βII isoform analysis by western blot. (FIG. 10B) KOPN8 or SEM cell lines were exposed to Bryostatin 1 for 16, 24, 48 or 72 hours. RNA was extracted from cells and analyzed using RNAseq. (FIG. 10C) Immunofluorescent staining of CD22 was conducted through permeabilization followed by staining of CD22. (FIG. 10D) Four cell lines were co-incubated with various combinations of Enzastaurin (10 μM), Staurosporine (100 μM), or Bryostatin 1 (1 nM) for 24 hours. CD22 expression was assessed using flow cytometry. MFI fold change=CD22 MFI^Bryostatin1/CD22 MFI^DMSO. (FIG. 10E) Cell lines were co-incubated with 1 nM Bryostatin 1 for 24 hours and measured for CD22 expression using CD22-PE antibody. MFI fold change=CD22 MFI^Bryostatin 1/CD22 MFI^DMSO.
Leukemia cell protein extracts were prepared by lysing cells with RIPA buffer and heating at 98° C. for 5 minutes. The proteins were separated on an SDS-PAGE gel and transferred to a nitrocellulose membrane. The membranes were immunoblotted with antibodies PKC-βII and GAPDH (Abcam), overnight at 4° C. […]

T1 sequence (P05771 1-673 isoform P05771-2): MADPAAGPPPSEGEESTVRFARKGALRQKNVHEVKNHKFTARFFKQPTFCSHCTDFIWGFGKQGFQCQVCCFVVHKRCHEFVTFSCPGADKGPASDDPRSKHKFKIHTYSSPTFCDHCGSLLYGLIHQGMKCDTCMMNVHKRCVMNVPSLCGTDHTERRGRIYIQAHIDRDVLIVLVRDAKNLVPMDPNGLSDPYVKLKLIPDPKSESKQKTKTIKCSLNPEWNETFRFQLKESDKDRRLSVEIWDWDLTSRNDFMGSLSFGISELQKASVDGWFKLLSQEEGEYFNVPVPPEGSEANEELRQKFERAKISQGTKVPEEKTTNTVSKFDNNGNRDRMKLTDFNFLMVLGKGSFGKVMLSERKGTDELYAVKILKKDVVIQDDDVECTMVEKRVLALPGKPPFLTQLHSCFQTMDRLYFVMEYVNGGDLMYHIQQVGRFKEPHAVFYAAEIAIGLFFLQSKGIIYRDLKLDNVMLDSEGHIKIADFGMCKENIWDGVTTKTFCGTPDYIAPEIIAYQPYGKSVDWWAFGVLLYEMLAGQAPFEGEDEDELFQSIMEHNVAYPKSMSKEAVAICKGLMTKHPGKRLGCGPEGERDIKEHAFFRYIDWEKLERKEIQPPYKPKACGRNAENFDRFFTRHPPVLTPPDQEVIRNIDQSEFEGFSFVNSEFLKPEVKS

`CCC/C=C/C=C/C(=O)O[C@H]1/C(=C/C(=O)OC)C[C@H]2C[C@H]([C@@H](C)O)OC(=O)C[C@H](O)C[C@@H]3C[C@H](OC(C)=O)C(C)(C)[C@](O)(C[C@@H]4C/C(=C/C(=O)OC)C[C@H](/C=C/C(C)(C)[C@]1(O)O2)O4)O3` [Bryostatin 1] was tested, and the “genes with 2-fold increased expression versus control” value (KOPN8 and SEM cell lines; KOPN8) was 756 genes, the “genes with a greater than 2-fold change” value (KOPN8 and SEM cell lines; KOPN8, 24 hours) was 1524 genes and the “CD22 mRNA over the course of treatment” value (KOPN8 and SEM cell lines; KOPN8 and SEM, 16, 24, 48, 72 hours) was “Neither cell line showed changes”. For the same compound, the “genes with a 2-fold change” value (KOPN8 and SEM cell lines; SEM) was “only one gene”, the “kinetics of leukemic clearance in vitro by drug-exposed CAR T cells” value [1] was “no change” and the “PKCβII protein levels on ALL” value (PKC-βII) was “decreased”.
